In brackets after ≈: the same amount, converted by molar mass.

The subject of the first test is A. baumannii strain ATCC19606. Kind of test: Minimum inhibitory concentration (MIC) determination, microbroth dilution (CLSI). In kind it is cell-based. Conditions: Acinetobacter baumannii; A. baumannii ATCC19606; CAMHB; read after 20 hours; >=80% growth inhibition; read-out: ATCC19606 MIC. Put shortly:
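After 20 h at 35±2 °C, MIC taken visually and by OD 600 nm as the lowest concentration giving ≥80% growth inhibition. Bacteria (~5×10^5 CFU/ml) were tested per CLSI microbroth dilution against twofold serial compound dilutions in cation-adjusted Mueller Hinton broth.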
On the technique in general: Dilution methods test growth across graded concentrations, often in twofold steps.
Consider `CN1C(=O)[C@H](CCCCN)NC(=O)[C@H](CCCN)NCc2cccnc2Sc2c(Cl)cc(-c3cc[nH]c3)cc2CNC(=O)[C@@H]1Cc1c[nH]c2ccccc12` [Example 232, (11S,14S,17S)-14-(4-Amino-butyl)-11-(3-amino-propyl)-25-chloro-17-(1H-indol-3-ylmethyl)-16-methyl-23-(1H-pyrrol-3-yl)-2-thia-4,10,13,16,19-pentaaza-tricyclo[19.4.0.0*3,8*]pentacosa-1(25),3(8),4,6,21,23-hexaene-12,15,18-trione], for which the minimum inhibitory concentration (MIC) (commonly the lowest concentration found to suppress growth) came out at 1 µg/mL (≈ 1.3 µM).

Regarding `Cc1[nH]c2ccccc2c1C[C@H]1C(=O)NCc2cc(C#N)cc(Cl)c2Sc2ncccc2CN[C@@H](CCCN)C(=O)N[C@@H](CCCCN)C(=O)N1C` [Example 233, (11S,14S,17S)-14-(4-Amino-butyl)-11-(3-amino-propyl)-25-chloro-16-methyl-17-(2-methyl-1H-indol-3-ylmethyl)-12,15,18-trioxo-2-thia-4,10,13,16,19-pentaaza-tricyclo[19.4.0.0*3,8*]pentacosa-1(25),3(8),4,6,21,23-hexaene-23-carbonitrile], the MIC is 0.25 µg/mL (≈ 0.336 µM).

For `Cc1[nH]c2ccccc2c1C[C@H]1C(=O)NCc2cc(-c3ccc(S(C)(=O)=O)cc3)cc(Cl)c2Sc2ncccc2CN[C@@H](CCCN)C(=O)N[C@@H](CCCCN)C(=O)N1C` [Example 234, (11S,14S,17S)-14-(4-Amino-butyl)-11-(3-amino-propyl)-25-chloro-23-(4-methanesulfonyl-phenyl)-16-methyl-17-(2-methyl-1H-indol-3-ylmethyl)-2-thia-4,10,13,16,19-pentaaza-tricyclo[19.4.0.0*3,8*]pentacosa-1(25),3(8),4,6,21,23-hexaene-12,15,18-trione], the MIC turned out to be 2 µg/mL (≈ 2.29 µM).

Take `Cc1[nH]c2ccccc2c1C[C@H]1C(=O)NCc2cc(-c3ccc(S(N)(=O)=O)cc3)cc(Cl)c2Sc2ncccc2CN[C@@H](CCCN)C(=O)N[C@@H](CCCCN)C(=O)N1C` [Example 235, 4-[(11S,14S,17S)-14-(4-Amino-butyl)-11-(3-amino-propyl)-25-chloro-16-methyl-17-(2-methyl-1H-indol-3-ylmethyl)-12,15,18-trioxo-2-thia-4,10,13,16,19-pentaaza-tricyclo[19.4.0.0*3,8*]pentacosa-1(25),3(8),4,6,21,23-hexaen-23-yl]-benzenesulfonamide]: the minimal inhibitory concentration (MIC) was determined as 0.5 µg/mL (≈ 0.572 µM).

In a further test the test system is A. baumannii strain ATCC17978. Kind of test: 50% growth inhibitory concentration (IC50) determination, Iso-Sensitest broth. It counts as cell-based. The following applies: Acinetobacter baumannii; A. baumannii ATCC17978; Iso-Sensitest medium; OD 600 nm over 16 h; read-out: IC50 ATCC17978. Here is the method:
The in vitro antimicrobial activity of the compounds was alternatively determined according to the following procedure:
The assay used a 10-points Iso-Sensitest broth medium to measure quantitatively the in vitro activity of the compounds against A. baumannii ATCC 17978.
Stock compounds in DMSO were serially twofold diluted (e.g. range from 50 to 0.097 μM final concentration) in 384 wells microtiter plates and inoculated with 49 μl the bacterial suspension in Iso-Sensitest medium to have a final cell concentration of ˜5×10^(5) CFU/ml in a final volume/well of 50 ul/well. Microtiter plates were incubated at 35±2° C.
Bacterial cell growth was determined with the measurement of optical density at λ=600 nm each 20 minutes over a time course of 16 h.
Growth inhibition was calculated during the logarithmic growth of the bacterial cells with determination of the concentration inhibiting 50% (IC50) and 90% (IC90) of the growth.
Tables 3, 4 and 5 provide the 50% growth inhibitory concentrations (IC50) in micromoles per liter of the compounds of present invention obtained against the A. baumannii strain ATCC17978.
Consider `CN1Cc2ccccc2Sc2ccccc2CNC(=O)[C@H](Cc2c[nH]c3ccccc23)NC(=O)[C@H](CCCN)NC(=O)[C@@H]1Cc1ccc(-c2ccccc2)cc1` [Example 117, (12S,15S,18S)-15-(3-Amino-propyl)-18-biphenyl-4-ylmethyl-12-(1H-indol-3-ylmethyl)-19-methyl-2-thia-10,13,16,19-tetraaza-tricyclo[19.4.0.0*3,8*]pentacosa-1(25),3,5,7,21,23-hexaene-11,14,17-trione], for which the half-maximal inhibitory concentration (IC50) (as a rule, the midpoint of a concentration-inhibition curve) came to 8.1 µM.

As to `NCCCC[C@@H]1NC(=O)[C@@H](CCCN)NCc2cccnc2Sc2c(ccc(-c3ccccc3)c2Cl)CNC(=O)[C@H](Cc2c[nH]c3ccccc23)NC1=O` [Example 124, (11R,14S,17S)-14-(4-Amino-butyl)-11-(3-amino-propyl)-25-chloro-17-(1H-indol-3-ylmethyl)-24-phenyl-2-thia-4,10,13,16,19-pentaaza-tricyclo[19.4.0.0*3,8*]pentacosa-1(25),3,5,7,21,23-hexaene-12,15,18-trione], the IC50 worked out at 34.9 µM.

As for `NCCCC[C@@H]1NC(=O)[C@H](CCCN)NCc2cccnc2Sc2c(ccc(-c3ccccc3)c2Cl)CNC(=O)[C@H](Cc2c[nH]c3ccccc23)NC1=O` [Example 125, (11S,14S,17S)-14-(4-Amino-butyl)-11-(3-amino-propyl)-25-chloro-17-(1H-indol-3-ylmethyl)-24-phenyl-2-thia-4,10,13,16,19-pentaaza-tricyclo[19.4.0.0*3,8*]pentacosa-1(25),3,5,7,21,23-hexaene-12,15,18-trione], the IC50 turned out to be 23.3 µM.

Consider `CN1C(=O)[C@H](CCCCN)NC(=O)[C@@H](CCCN)NCc2cccnc2Sc2c(ccc(-c3ccccc3)c2Cl)CNC(=O)[C@@H]1Cc1c[nH]c2ccccc12` [Example 126, (11R,14S,17S)-14-(4-Amino-butyl)-11-(3-amino-propyl)-25-chloro-17-(1H-indol-3-ylmethyl)-16-methyl-24-phenyl-2-thia-4,10,13,16,19-pentaaza-tricyclo[19.4.0.0*3,8*]pentacosa-1(25),3,5,7,21,23-hexaene-12,15,18-trione], for which the half-inhibitory concentration (IC50) came out at 30.3 µM.

As to `CN1C(=O)[C@H](CCCCN)NC(=O)[C@H](CCCN)NCc2cccnc2Sc2c(Cl)ccc(C(F)(F)F)c2CNC(=O)[C@@H]1Cc1ccc2ccccc2n1` [Example 132, (11S,14S,17S)-14-(4-Amino-butyl)-11-(3-amino-propyl)-25-chloro-16-methyl-17-quinolin-2-ylmethyl-22-trifluoromethyl-2-thia-4,10,13,16,19-pentaaza-tricyclo[19.4.0.0*3,8*]pentacosa-1(25),3,5,7,21,23-hexaene-12,15,18-trione], the IC50 is 17 µM.

Regarding `CN1C(=O)[C@H](CCCN)NC(=O)[C@H](CCCN)NCc2ccccc2Sc2c(Cl)cc(Cl)cc2CNC(=O)[C@@H]1Cc1c[nH]c2ccccc12` [Example 133, (12S,15S,18S)— 15,18-Bis-(3-amino-propyl)-4,6-dichloro-12-(1H-indol-3-ylmethyl)-13-methyl-2-thia-10,13,16,19-tetraaza-tricyclo[19.4.0.0*3,8*]pentacosa-1(25),3,5,7,21,23-hexaene-11,14,17-trione], the 50% inhibitory concentration (IC50) came out at 0.1 µM.

On to `CN1C(=O)[C@H](CCCCN)NC(=O)[C@H](CCCN)NCc2cccnc2Sc2c(Cl)ccc(C(F)(F)F)c2CNC(=O)[C@@H]1Cc1c[nH]c2ccc(Cl)cc12` [Example 135, (11S,14S,17S)-14-(4-Amino-butyl)-11-(3-amino-propyl)-25-chloro-17-(5-chloro-1H-indol-3-ylmethyl)-16-methyl-22-trifluoromethyl-2-thia-4,10,13,16,19-pentaaza-tricyclo[19.4.0.0*3,8*]pentacosa-1(25),3,5,7,21,23-hexaene-12,15,18-trione], for which the 50% inhibitory concentration (IC50) was 0.2 µM.

As for `CN1C(=O)[C@H](CCCCN)NC(=O)[C@H](CCCN)NCc2cccnc2Sc2c(Cl)ccc(C(F)(F)F)c2CNC(=O)[C@@H]1CC1CNc2ccccc21` (stereo partly drawn) [Example 136, (11S,14S,17S)-14-(4-Amino-butyl)-11-(3-amino-propyl)-25-chloro-17-(2,3-dihydro-1H-indol-3-ylmethyl)-16-methyl-22-trifluoromethyl-2-thia-4,10,13,16,19-pentaaza-tricyclo[19.4.0.0*3,8*]pentacosa-1(25),3,5,7,21,23-hexaene-12,15,18-trione], the IC50 came to 0.6 µM.

Take `CN1C(=O)[C@H](CCCCN)NC(=O)[C@H](CCCN)NCc2ccccc2Sc2c(Cl)cc(-c3ccccc3)cc2CNC(=O)[C@@H]1Cc1c[nH]c2ccccc12` [Example 140, (12S,15S,18S)-15-(4-Amino-butyl)-18-(3-amino-propyl)-4-chloro-12-(1H-indol-3-ylmethyl)-13-methyl-6-phenyl-2-thia-10,13,16,19-tetraaza-tricyclo[19.4.0.0*3,8*]pentacosa-1(25),3,5,7,21,23-hexaene-11,14,17-trione]: the IC50 turned out to be 0.6 µM.

Consider `CN1C(=O)[C@H](CCCCN)NC(=O)[C@H](CCCN)NCc2ccccc2Sc2c(Cl)cc(-c3ccccc3Cl)cc2CNC(=O)[C@@H]1Cc1c[nH]c2ccccc12` [Example 141, (12S,15S,18S)-15-(4-Amino-butyl)-18-(3-amino-propyl)-4-chloro-6-(2-chloro-phenyl)-12-(1H-indol-3-ylmethyl)-13-methyl-2-thia-10,13,16,19-tetraaza-tricyclo[19.4.0.0*3,8*]pentacosa-1(25),3,5,7,21,23-hexaene-11,14,17-trione], for which the IC50 was 1.3 µM.

Turning to `CN1C(=O)[C@H](CCCCN)NC(=O)[C@H](CCCN)NCc2ccccc2Sc2c(Cl)cc(-c3cccnc3)cc2CNC(=O)[C@@H]1Cc1c[nH]c2ccccc12` [Example 142, (12S,15S,18S)-15-(4-Amino-butyl)-18-(3-amino-propyl)-4-chloro-12-(1H-indol-3-ylmethyl)-13-methyl-6-pyridin-3-yl-2-thia-10,13,16,19-tetraaza-tricyclo[19.4.0.0*3,8*]pentacosa-1(25),3,5,7,21,23-hexaene-11,14,17-trione], the IC50 was less than 0.4 µM.

Regarding `CN1C(=O)[C@H](CCCCN)NC(=O)[C@H](CCCN)NCc2ccccc2Sc2c(Cl)cc(-c3ccncc3)cc2CNC(=O)[C@@H]1Cc1c[nH]c2ccccc12` [Example 143, (12S,15S,18S)-15-(4-Amino-butyl)-18-(3-amino-propyl)-4-chloro-12-(1H-indol-3-ylmethyl)-13-methyl-6-pyridin-4-yl-2-thia-10,13,16,19-tetraaza-tricyclo[19.4.0.0*3,8*]pentacosa-1(25),3,5,7,21,23-hexaene-11,14,17-trione], the IC50 is less than 0.4 µM.

Values taken from patent publication US10030047B2 (Hoffmann-La Roche Inc., priority 2015, dated 2018).
